Measurements from patent publication US4959377A, “Phenoxypyridinamine compounds which are use as a dermatological composition” (Hoechst-Roussel Pharmaceuticals Inc., priority 1989, dated 1990).
Structures can show the parent of a compound that is named as a salt.

What was measured:
[1] = test system: ear edema induced by topical application of TPA (phorbol 12-myristate acetate); assay: TPA-Induced Ear Edema (TPAEE); assay type: in vivo, Female Swiss Webster mice; settings: for TPAEE: 10 μg/ear topical, TPA 10 μg/ear, five hours
Protocol: TPA-Induced Ear Edema (TPAEE)
The purpose of this assay was to determine the ability of a topically-applied compound to prevent ear edema induced by topical application of TPA (phorbol 12-myristate acetate). Female Swiss Webster mice topically received TPA (10 μg/ear) on the right ear and vehicle on the left ear. The test compound (10 μg/ear) was applied to both ears. After five hours, the animals were sacrificed and an ear punch (4 mm) was taken from each ear. The difference in right and left ear punch weights for each animal was determined to assess activity. […] See Young, J. M. et al., J. Invest. Dermatol., 80 (1983), pp. 48-52.

[2] = test system: naja naja (snake venom) phospholipase A2 -induced paw edema; assay: Phospholipase A2-induced Paw Edema (PIPE); assay type: in vivo, male Wistar rats
Protocol: Phospholipase A2 -induced Paw Edema (PIPE)
The ability of compounds to prevent naja naja (snake venom) phospholipase A2 -induced paw edema in male Wistar rats (100-125 g) was measured. PLA2 (3 units/paw) alone or with 0.1M of the test compound was injected in the subplantar region of the rat left hindpaw. Immediately subsequent to the injection and at two hours post administration the paw was immersed in a mercury bath, and paw displacement was measured on a recorder via a transducer. […] See Giessler, A. J. et al., Agents and Actions, Vol. 10, Trends in Inflammation Research (1981), p. 195.

porcine pancreatic PLA2 = target: T1, porcine pancreatic PLA2 (Sus scrofa, UniProt P00592); assay: In Vitro Phospholipase A2 Assay (PLA2); assay type: biochemical; settings: 0.01 M test compound, 37° C., pH 8.0; read-out: PLA2 (difference vs. control)
T1 construct: from tissue; host or cells: porcine pancreas
Protocol: In Vitro Phospholipase A2 Assay (PLA2)
The ability of a compound to modulate PLA2 activity (cleavage of ^14 C-dipalmitoyl phosphotidylcholine at the 2-position to ^14 C-palmitic acid) was quantitated in this assay. The reaction mixture contained Tris buffer (25 mM), pH 8.0, calcium chloride (2.0 mM), bovine serum albumin (0.5 mg), dipalmitoyl phosphotidylcholine (8×10^-5M), (^14 C-palmitoyl)dipalmitoyl phosphotidylcholine (6×10^3cpm), porcine pancreatic PLA2 (3.2 units) and the test compound. The reaction was run at 37° C. in a shaking incubator. The reaction was quenched and an internal standard was added in order to determine sample recovery. The samples were loaded onto C18 columns, eluted with ethanol, and the radioactivity was then measured. […] See Feyen, J. H. M., et al., Journal of Chromatography 259 (1983), pp. 338-340.

[3] = test system: mouse ear edema induced by topical application of arachidonic acid; assay: Arachidonic Acid-Induced Ear Edema (AAEE); assay type: in vivo, Female Swiss Webster mice
Protocol: Arachidonic Acid-Induced Ear Edema (AAEE)
The purpose of this assay was to determine the ability of a topically-applied compound to prevent mouse ear edema induced by topical application of arachidonic acid. Female Swiss Webster mice topically received vehicle or test compound (1.0 mg/ear) on both ears (10 μl on outer and inner ears). After 30 minutes, the right ear of all groups received arachidonic acid (4 mg/ear) and the left ear received vehicle alone. After an additional 1 hour, the mice were sacrificed and an ear punch (4 mm) was taken from each ear. The difference in right and left ear punch weights for each animal was determined to assess activity. […] See Young, J. M. et al., J. Invest. Dermatol., 80, (1983), pp 48-52.

T1 sequence (P00592 23-146): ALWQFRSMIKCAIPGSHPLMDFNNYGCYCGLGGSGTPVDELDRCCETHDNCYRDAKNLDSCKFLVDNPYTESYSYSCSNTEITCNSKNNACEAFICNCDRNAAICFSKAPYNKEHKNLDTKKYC

Row | SMILES | TPAEE [1] | inhibition at 10000 µM (porcine pancreatic PLA2) | other results
1 | Nc1cnccc1Oc1ccccc1 [4-phenoxy-3-pyridinamine, 4-Phenoxy-3-pyridinamine] | -34% |  | 
2 | C[C@]12CCC(=O)C=C1CC[C@@H]1[C@@H]2[C@@H](O)C[C@@]2(C)[C@H]1CC[C@]2(O)C(=O)CO [hydrocortisone, reference compound] |  |  | ED50 (TPAEE standard) ([1]; standard, topical): 47 μg/ear; ED50 (PIPE standard) ([2]; standard, rat paw edema): 0.46 M
3 | Nc1ccncc1Oc1ccccc1CO [2-(4-Amino-3-pyridinyloxy)benzenemethanol oxalate] |  | 82% | 
4 | CC(=O)Nc1ccncc1Oc1ccccc1 [N-(3-Phenoxy-4-pyridinyl)acetamide hydrochloride] |  | 73% | 
5 | Cl.Nc1ccncc1Oc1ccccc1 [3-phenoxy-4-pyridinamine hydrochloride, 3-Phenoxy-4-pyridinamine hydrochloride] | -60% | 95% | AAEE ([3]; 1 mg/ear topical, arachidonic acid 4 mg/ear, 1 hour): -31%; PIPE (difference in edema vs. control) ([2]; 0.1 M test compound injected with PLA2 (3 units/paw), subplantar, rat hindpaw, two hours post administration): -79%
6 | CCOC(=O)Cc1ccc(Oc2cnccc2N)cc1.O=C(O)C(=O)O [4-(4-Amino-3-pyridinyloxy)benzeneacetic acid ethyl ester oxalate] | -39% |  | 
7 | COc1ccc2c(c1)c(CC(=O)O)c(C)n2C(=O)c1ccc(Cl)cc1 [indomethacin, reference compound] |  |  | ED50 (AAEE standard) ([3]; standard, topical): 1.5 mg/ear
8 | COc1ccc(Oc2c[n+]([O-])ccc2[N+](=O)[O-])cc1 [3-(4-Methoxyphenoxy)-4-nitropyridine-1-oxide] | -43% |  | 
9 | COC(=O)c1ccccc1Oc1cnccc1N [2-(4-Amino-3-pyridinyloxy)benzoic acid methyl ester hydrochloride] |  | 38% | 
